From patent US8017612B2, “Piperazine compound and use thereof as a HCV polymerase inhibitor” (priority 2006, dated 2011)

Columns and labels:
[1] = molecular target: T1, HCV polymerase (NS5B) type 1a (Hepatitis C virus genotype 1a, UniProt P26664); assay: Assay of enzyme (HCV polymerase) inhibitory activity, type 1a enzyme; format: biochemical, HCV type 1a (cloned from the blood of patients); conditions: HCV polymerase inhibitory activity (IC50), 1a, type 1a enzyme 1.5 μg/ml, 25° C., 60 min
T1 construct: made in house; host or cells: Escherichia coli (by the 'similar method' of the 1b enzyme)
Summary of the method: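 Patient-derived type 1a NS5B (C-terminal 47-aa deletion, His-tagged, E. coli-expressed) at 1.5 μg/ml was reacted with 5 μg/ml 3′UTR-containing substrate RNA, 50 μM ATP/GTP/CTP, 2 μM UTP plus [3H]UTP, pH 7.5, 25° C for 60 min. TCA-precipitated RNA radioactivity was counted; IC50 from ± compound.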

[2] = molecular target: T2, HCV polymerase (NS5B) type 1b (Hepatitis C virus genotype 1b, UniProt P26663); assay: Assay of enzyme (HCV polymerase) inhibitory activity, type 1b enzyme; format: biochemical, HCV BK strain (type 1b); conditions: HCV polymerase inhibitory activity (IC50), 1b, type 1b enzyme 0.5 μg/ml, 25° C., 60 min
T2 construct: a region encoding NS5B (J Virol 1991 March, 65(3), 1105-13, 544 amino acids after deletion of 47 amino acids on the C-terminal); 6xHis (C); made in house; host or cells: Escherichia coli
Summary of the method: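 NS5B from HCV BK strain (type 1b), C-terminal 47 aa deleted, C-terminal His6-tagged, E. coli-expressed, 0.5 μg/ml, with ~450 nt substrate RNA carrying the 3′ UTR (polyU, 3′X) at 5 μg/ml. Incubation 60 min at 25 °C with 50 μM ATP/GTP/CTP, 2 μM UTP plus [3H]UTP, pH 7.5 Tris.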

Row | SMILES | IC50 [1] | IC50 [2]
1 | CC(C)(C)c1ccc(CNC(=O)[C@H]2CN(c3nc4c(s3)CNCC4)CCN2S(=O)(=O)c2ccc(OC(F)(F)F)cc2)cc1 [Example 588, (R)-4-(4,5,6,7-tetrahydro-thiazolo[5,4-c]pyridin-2-yl)-1-(4-trifluoromethoxy-benzenesulfonyl)-piperazine-2-carboxylic acid 4-tert-butyl-benzylamide] | < 100 nM | < 100 nM
2 | CC(=O)N1CCc2nc(N3CCN(S(=O)(=O)c4ccc(OC(F)(F)F)cc4)[C@@H](C(=O)NCc4ccc(C(C)(C)C)cc4)C3)sc2C1 [Example 589, (R)-4-(5-acetyl-4,5,6,7-tetrahydro-thiazolo[5,4-c]pyridin-2-yl)-1-(4-trifluoromethoxy-benzenesulfonyl)-piperazine-2-carboxylic acid 4-tert-butyl-benzylamide] | < 100 nM | < 100 nM
3 | CCC(F)(F)c1ccc(CNC(=O)[C@H]2CN(C(=O)Cc3ccncn3)CCN2S(=O)(=O)c2ccc(OC(F)(F)F)cc2)cc1 [Example 590, (R)-4-(2-pyrimidin-4-yl-acetyl)-1-(4-trifluoromethoxy-benzenesulfonyl)-piperazine-2-carboxylic acid 4-(1,1-difluoro-propyl)-benzylamide] | < 100 nM | < 100 nM
4 | CCC(F)(F)c1ccc(CNC(=O)[C@H]2CN(c3cnc(C#N)cn3)CCN2S(=O)(=O)c2ccc(OC(F)(F)F)cc2)cc1 [Example 591, (R)-5′-cyano-4-(4-trifluoromethoxy-benzenesulfonyl)-3,4,5,6-tetrahydro-2H-[1,2′]bipyrazinyl-3-carboxylic acid 4-(1,1-difluoro-propyl)-benzylamide] | < 100 nM | < 100 nM
5 | CCC(F)(F)c1ccc(CNC(=O)[C@H]2CN(c3cnc(-c4nnn[nH]4)cn3)CCN2S(=O)(=O)c2ccc(OC(F)(F)F)cc2)cc1 [Example 592, (R)-5′-(1H-tetrazol-5-yl)-4-(4-trifluoromethoxy-benzenesulfonyl)-3,4,5,6-tetrahydro-2H-[1,2′]bipyrazinyl-3-carboxylic acid 4-(1,1-difluoro-propyl)-benzylamide] | < 100 nM | < 100 nM
6 | CC(C)(C)c1ccc(CNC(=O)[C@H]2CN(c3cnc(CN4CCOCC4)cn3)CCN2S(=O)(=O)c2ccc(OC(F)(F)F)cc2)cc1 [Example 593, (R)-5′-morpholin-4-ylmethyl-4-(4-trifluoromethoxy-benzenesulfonyl)-3,4,5,6-tetrahydro-2H-[1,2′]bipyrazinyl-3-carboxylic acid 4-tert-butyl-benzylamide] | < 100 nM | < 100 nM
7 | CN1CCN(Cc2cnc(N3CCN(S(=O)(=O)c4ccc(OC(F)(F)F)cc4)[C@@H](C(=O)NCc4ccc(C(C)(C)C)cc4)C3)cn2)CC1 [Example 594, (R)-5′-(4-methyl-piperazin-1-ylmethyl)-4-(4-trifluoromethoxy-benzenesulfonyl)-3,4,5,6-tetrahydro-2H-[1,2′]bipyrazinyl-3-carboxylic acid 4-tert-butyl-benzylamide] | < 100 nM | < 100 nM
8 | CCC(F)(F)c1ccc(CNC(=O)[C@H]2CN(c3cnc(CN(C)C)cn3)CCN2S(=O)(=O)c2ccc(OC(F)(F)F)cc2)cc1 [Example 595, (R)-5′-dimethylaminomethyl-4-(4-trifluoromethoxy-benzenesulfonyl)-3,4,5,6-tetrahydro-2H-[1,2′]bipyrazinyl-3-carboxylic acid 4-(1,1-difluoro-propyl)-benzylamide] | < 100 nM | < 100 nM
9 | CCC(F)(F)c1ccc(CNC(=O)[C@H]2CN(c3nc(NC(C)=O)ns3)CCN2S(=O)(=O)c2ccc(OC(F)(F)F)cc2)cc1 [Example 596, (R)-4-(3-acetylamino-[1,2,4]thiadiazol-5-yl)-1-(4-trifluoromethoxy-benzenesulfonyl)-piperazine-2-carboxylic acid 4-(1,1-difluoro-propyl)-benzylamide] | < 100 nM | < 100 nM
10 | CC(C)(C)c1ccc(CNC(=O)[C@H]2CN(c3nc4cc[nH]c(=O)c4s3)CCN2S(=O)(=O)c2ccc(OC(F)(F)F)cc2)cc1 [Example 597, (R)-4-(4-oxo-4,5-dihydro-thiazolo[5,4-c]pyridin-2-yl)-1-(4-trifluoromethoxy-benzenesulfonyl)-piperazine-2-carboxylic acid 4-tert-butyl-benzylamide] | < 100 nM | < 100 nM
11 | CC(=O)N1CCN(S(=O)(=O)c2ccc(OC(F)(F)F)cc2)[C@@H](C(=O)NCc2ccc(-c3ccccn3)s2)C1 [Example 598, (R)-4-acetyl-1-(4-trifluoromethoxy-benzenesulfonyl)-piperazine-2-carboxylic acid (5-pyridin-2-yl-thiophen-2-ylmethyl)-amide] | 100 to 1000 nM | 100 to 1000 nM
12 | CC(=O)N1CCN(S(=O)(=O)c2ccc(OC(F)(F)F)cc2)[C@@H](C(=O)NCc2csc(-c3cccs3)n2)C1 [Example 599, (R)-4-acetyl-1-(4-trifluoromethoxy-benzenesulfonyl)-piperazine-2-carboxylic acid (2-thiophen-2-yl-thiazol-4-ylmethyl)-amide] | 100 to 1000 nM | > 1000 nM
13 | CC(C)(C)c1ccc(CNC(=O)[C@H]2CN(c3nc4c(s3)CN(S(C)(=O)=O)CC4)CCN2S(=O)(=O)c2ccc(OC(F)(F)F)cc2)cc1 [Example 600, (R)-4-(5-methanesulfonyl-4,5,6,7-tetrahydro-thiazolo[5,4-c]pyridin-2-yl)-1-(4-trifluoromethoxy-benzenesulfonyl)-piperazine-2-carboxylic acid 4-tert-butyl-benzylamide] | < 100 nM | < 100 nM
14 | CCNC(=O)N1CCc2nc(N3CCN(S(=O)(=O)c4ccc(OC(F)(F)F)cc4)[C@@H](C(=O)NCc4ccc(C(C)(C)C)cc4)C3)sc2C1 [Example 601, 2-[(R)-3-(4-tert-butyl-benzylcarbamoyl)-4-(4-trifluoromethoxy-benzenesulfonyl)-piperazin-1-yl]-6,7-dihydro-4H-thiazolo[5,4-c]pyridine-5-carboxylic acid ethylamide] | < 100 nM | < 100 nM
15 | CC(C)(C)c1ccc(CNC(=O)[C@H]2CN(c3nc4nc[nH]c(=O)c4s3)CCN2S(=O)(=O)c2ccc(OC(F)(F)F)cc2)cc1 [Example 602, (R)-4-(7-oxo-6,7-dihydro-thiazolo[4,5-d]pyrimidin-2-yl)-1-(4-trifluoromethoxy-benzenesulfonyl)-piperazine-2-carboxylic acid 4-tert-butyl-benzylamide] | < 100 nM | < 100 nM
16 | CC(C)(C)c1ccc(CNC(=O)[C@H]2CN(c3nc(CO)c(C(=O)O)s3)CCN2S(=O)(=O)c2ccc(OC(F)(F)F)cc2)cc1 [Example 603, 2-[(R)-3-(4-tert-butyl-benzylcarbamoyl)-4-(4-trifluoromethoxy-benzenesulfonyl)-piperazin-1-yl]-4-hydroxymethyl-thiazole-5-carboxylic acid] | 100 to 1000 nM | 100 to 1000 nM
17 | CCC(F)(F)c1ccc(CNC(=O)[C@H]2CN(c3cnc(CO)c(N)n3)CCN2S(=O)(=O)c2ccc(OC(F)(F)F)cc2)cc1 [Example 604, (R)-6′-amino-5′-hydroxymethyl-4-(4-trifluoromethoxy-benzenesulfonyl)-3,4,5,6-tetrahydro-2H-[1,2′]bipyrazinyl-3-carboxylic acid 4-(1,1-difluoro-propyl)-benzylamide] | 100 to 1000 nM | < 100 nM
18 | CCC(F)(F)c1ccc(CNC(=O)[C@H]2CN(c3cc(N)ncn3)CCN2S(=O)(=O)c2ccc(OC(F)(F)F)cc2)cc1 [Example 605, (R)-4-(6-amino-pyrimidin-4-yl)-1-(4-trifluoromethoxy-benzenesulfonyl)-piperazine-2-carboxylic acid 4-(1,1-difluoro-propyl)-benzylamide] | < 100 nM | < 100 nM
19 | COc1nsc(N2CCN(S(=O)(=O)c3ccc(OC(F)(F)F)cc3)[C@@H](C(=O)NCc3ccc(C(C)(C)C)cc3)C2)n1 [Example 606, (R)-4-(3-methoxy-[1,2,4]thiadiazol-5-yl)-1-(4-trifluoromethoxy-benzenesulfonyl)-piperazine-2-carboxylic acid 4-tert-butyl-benzylamide] | < 100 nM | < 100 nM
20 | CCC(F)(F)c1ccc(CNC(=O)[C@H]2CN(C(=O)Nc3cncs3)CCN2S(=O)(=O)c2ccc(OC(F)(F)F)cc2)cc1 [Example 607, (R)-4-(4-trifluoromethoxy-benzenesulfonyl)-piperazine-1,3-dicarboxylic acid 3-[4-(1,1-difluoro-propyl)-benzylamide] 1-thiazol-5-ylamide] | 100 to 1000 nM | 100 to 1000 nM
21 | COc1ccc(CNC(=O)[C@H]2CN(C(C)=O)CCN2S(=O)(=O)c2ccc(OC(F)(F)F)cc2)cc1 [Example 608, (R)-4-acetyl-1-(4-trifluoromethoxy-benzenesulfonyl)-piperazine-2-carboxylic acid 4-methoxy-benzylamide] | 100 to 1000 nM | 100 to 1000 nM
22 | CCC(F)(F)c1ccc(CNC(=O)[C@H]2CN(C(=O)C(C)C)CCN2S(=O)(=O)c2ccc(OC(F)(F)F)cc2)cc1 [Example 609, (R)-4-isobutyryl-1-(4-trifluoromethoxy-benzenesulfonyl)-piperazine-2-carboxylic acid 4-(1,1-difluoro-propyl)-benzylamide] | > 1000 nM | 100 to 1000 nM
